Experimental data published in ChEMBL document CHEMBL3272126 (J Med Chem, 1977).

Key:
Mus musculus [1] = test: Toxicity in sc dosed albino mouse assessed as mydriasis; type: organism-based; conditions: in vivo
Mus musculus [2] = test: Anti-tremorine activity against sc dosed albino mouse assessed as normalized dose for reversal of tremorine-induced spontaneous activity depression; type: functional

**Q.** `CN1[C@@H]2CC[C@H]1CC(OC(=O)[C@H](CO)c1ccccc1)C2` (stereo partly drawn) [ENDO-ATROPINE] was tested. Which ED50 (Mus musculus [1]) did it give?
**A.** Its ED50 is 0.061 mg/kg.

**Q.** And the ND (Mus musculus [2])?
**A.** The ND was 2.2 mg/kg.

**Q.** How did the ED50 (Mus musculus [1]) turn out when `CN1[C@@H]2C[C@@H](OC(=O)[C@H](CO)c3ccccc3)C[C@H]1[C@@H]1O[C@@H]12` [SCOPOLAMINE] was run?
**A.** The ED50 was 0.012 mg/kg.

**Q.** What about the ND (Mus musculus [2]) of the same compound?
**A.** The ND was 1.3 mg/kg.
